Source: patent US20230287316A1, “INTER-ORGAN PLATFORM WITH TISSUE-SPECIFIC NICHES FOR A MICROPHYSIOLOGICAL SYSTEM ON A CHIP” (THE TRUSTEES OF COLUMBIA UNIVERSITY IN THE CITY OF NEW YORK, priority 2020, published 2023)

Columns and labels:
Type in all cases: cell-based, human
[1] = system: tumors engineered from non-metastatic OS cells; test: Linsitinib in bioengineered tumors from non-metastatic OS cells; details: 12 µM, for 3 weeks
Experimental: We tested the drug Linsitinib—a potent tyrosine kinase inhibitor targeting the IGF-1 receptor (IGF-1R) —in metastatic and non-metastatic OS models (FIG. 17C). The drug was administered (12 µM, for 3 weeks), as per an ongoing Phase II Eurosarc trial in patients with advanced Ewing sarcoma.

[2] = system: non-metastatic RD-ES cell line; test: Linsitinib 12 µM on non-metastatic ES cell monolayers, luminescence viability; details: 12 µM over 72 hours
Experimental: (§1) MTT viability assay was used to determine drug toxicity, with luminescence generated by viable cells measured at the endpoint (10^4 cells per well, mean± s.e.m., n = 3). […] In order to determine cancer cell viability, cells were lysed and treated with luciferin using a Bright-Glo™ assay, with subsequent luminescence measured (10^4 cells per well, mean± s.e.m., n = 3).
(§2) Both culture media were supplemented with 10% FBS and 1 % penicillin/streptomycin.
(§3) Cell viability was analyzed using a previously established protocol.^59 Cancer cell viability was measured for GFP-Luciferase labelled cancer cells using ONE-Glo luciferase substrate that was prepared according to manufacturer’s protocol (Promega). Samples were collected following 3, 7, and 21 days cycles of linsitinib treatment. Where noted, longitudinal cell viability was also assessed using luminescence, though at the cost of signal strength. Briefly, in vivo grade VivoGlo™ Luciferin (Promega) was made at a 200x stock concentration (30 mg/ml) in water, added to sample culture media at a 1:200 dilution, and scanned using a spectrophotometer (Biotek). Some of the IC50 values were determined using cell viability data generated using an MTT assay (RealTime-Glo™ MT Cell Viability Assay, Promega) that were analyzed according to manufacturer’s protocol.

[3] = system: metastatic SK-N-MC cell line; test: Linsitinib 12 µM on metastatic ES cell monolayers, luminescence viability; details: 12 µM over 72 hours
Experimental: as §1, §2, §3

[4] = system: engineered cardiac tissues; test: Linsitinib on engineered cardiac tissues cultured in isolation; details: isolated
Experimental: FIGS. 32A-D show aspects of responses of human engineered bone ES tumors and cardiac tissues to linsitinib in isolated platform chambers. […] Luminescence as a function of cancer cell number and viability was measured (mean± s.e.m., n = 6 for day 3, and n = 3 for day 7 and 21).
Specifically, linsitinib was dissolved at a 10 mM concentration in DMSO (Corning) and mixed in with the respective cell medium at a […] concentration unless otherwise noted. Vehicle treatments involved just the addition of DMSO at identical volumes as a control. Tissues were randomly assigned to experimental groups. Medium was changed every day.
(§4) To measure the cardiac contractility online, we took contractility videos of the tissues that were analyzed using the native MATLAB code we previously developed. Tissue contractility was measured by tracking the change in tissue area as a function of time. Acquired video frames were inverted and an automated intensity threshold was used to identify cell location in the video frame. First, a baseline time point in the video corresponding to a relaxed tissue state was selected. Absolute differences in cell area from the baseline frame were then calculated to create a time course of cell area changes over time. The resulting time courses were analyzed using a native MATLAB (MATHWorks) automated peak finding algorithm to determine locations of maximum cell contractions in the time profiles. Beat period lengths were determined from the length of time between the pairs of local maxima, and the beat frequencies were determined by inverting beat periods. The rate of proarrhythmic events was calculated by the ratio of the number of proarrhythmic events over the total number of beats.

[5] = system: non-metastatic TE-ES bone tumor; test: Linsitinib on non-metastatic TE-ES in 1:1 mixed media; details: 12 µM regimen
Experimental: as §3
Osteocalcin (OCN), osteopontin (OPN), and lactic acid dehydrogenase (LDH) secreted levels were all measured using a similar approach. Supernatants were isolated from controls and drug treated TE-ES and equal amounts were used in each assay according to the manufacturer’s instructions. For OCN a Human Osteocalcin Quantikine^R ELISA (R&D Systems) was used, while for OPN it was a Human Osteopontin Quantikine^R ELISA (R&D Systems). LDH secretion was determined using a Lactate Dehydrogenase Assay Kit (Colorimetric; Abcam).

cardiac tissues = test: Linsitinib on cardiac tissue in the integrated platform with microfluidic perfusion
Experimental: The TE-ES and cardiac tissues were then cultured in the integrated platform with perfusion of mixed media. Linsitinib was introduced into the reservoir and delivered to tissues via circulation of perfusate and diffusion into the tissues.
FIGS. 35A-E show aspects of responses of human engineered bone ES tumors and cardiac tissues to linsitinib in the integrated platform with microfluidic perfusion. FIGS. 35A and 35B show the responses when non-metastatic ES bone tumors and cardiac tissues were exposed to linsitinib (12 µM) over a period of 72 hours in either isolated culture or within the perfused integrated platform. Luminescence (FIG. 35A) and LDH secretion (FIG. 35B) as functions of cancer cell number and viability as well as cytotoxicity, respectively, were measured (mean± s.e.m., n = 3).
as §4

C[C@]1(O)C[C@@H](c2nc(-c3ccc4ccc(-c5ccccc5)nc4c3)c3c(N)nccn32)C1 [linsitinib]
tumor viability [1]: significant viability reduction | drug efficacy (luminescence viability) [2]: significant drug efficacy | drug efficacy (luminescence viability) [3]: significant drug efficacy | beating frequency ([4]; 12 µM, after 3 days of exposure): increased beating frequency | rate of proarrhythmic events per beat ([4]; 12 µM): around 36% | response to subsequent isoproterenol exposure ([4]; after 12 µM linsitinib): the inotropic response was not observed | OCN secretion [5]: increased only slightly | cancer cell population level (luminescence) [5]: ~ 30 % of their starting population | rate of proarrhythmic events (cardiac tissues; 12 µM, integrated model): approximately 11% | beat frequency (cardiac tissues; 12 µM, integrated platform): did not observe linsitinib-mediated changes in beat frequency | response to subsequent isoproterenol exposure (cardiac tissues; after 12 µM linsitinib, integrated platform): expected inotropic response | overall cardiotoxicity (cardiac tissues; integrated platform): mild cardiotoxicity
